Source: US10030027B2, “Soluble guanylate cyclase stimulators” (MERCK SHARP & DOHME CORP., priority 2015, dated 2018)

Key:
sGC α1/β1 heterodimer = sGC α1/β1 heterodimer (Homo sapiens (Human), UniProt Q02108+Q02153); assay: Cell-based sGC functional assay (cyclic GMP assay for sGC activator: CASA assay); set-up: % Activation: concentration or dose not given beside the values; conditions: CHO-K1/sGC cells; for Emax: CHO-K1, activity expressed as percentage of compound A (standard), read-out: % Activation; for EC50: inflection point, 4P fit, read-out: IP
How it was run: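 CHO-K1 cells stably expressing sGC α1/β1 were pre-incubated with or without 1 μM DETA-NO (30 min, 25 °C), then exposed to compounds for 1 hr at 37 °C with 0.5 mM IBMX. Intracellular cGMP was read by HTRF and expressed as a percentage of a reference heme-dependent activator's maximum.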

[1] = biological target: human recombinant sGC enzyme (Homo sapiens (Human), UniProt Q02108+Q02153); assay: Size Exclusion Chromatography (SEC) competition binding assay using [3H] Ex-77B as the radioligand; conditions: [3H] Ex-77B radioligand, 24 hours at 37° C.
How it was run: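 Recombinant human sGC binding measured by competition against tritiated Ex-77B radioligand, with non-specific binding defined by 1 μM unlabeled Ex-77B.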

[2] = tested on: Spontaneously hypertensive rats (SHR); assay: Acute efficacy in spontaneously hypertensive rats (SHR); type: in vivo, rat
From the text: Acute Efficacy in Spontaneously Hypertensive Rats (SHR)
Spontaneously hypertensive rats (SHR, male, Charles River) were implanted with DSI TA11PA-C40 telemetry device (Data Sciences, Inc., St. Paul, Minn.) under isoflurane or ketamine/metomidine anesthesia. The telemetry unit catheter was inserted into the descending aorta via the femoral artery and the telemetry device was implanted subcutaneously in the left flank area. Animals were allowed to recover from surgery for 14 days before the start of any studies. Blood pressure, heart rate, and activity signals from conscious, freely moving rats were recorded continuously for 30 seconds every 10 minutes. On the day prior to administration of compound, a single oral dose of vehicle (10% transcutol/20% Cremophor/70% water) was administered to all animals to establish baseline control data. The blood pressure lowering efficacy of compound (PO) or vehicle was evaluated following a single oral gavage. Data were collected as hourly averages, and changes in blood pressure were calculated by subtracting control baseline data on an hourly basis. Animals were maintained on normal diet with a 12 hour light-dark cycle.
Maximum peak decreases of systolic blood pressure (SBP) in SHR at a particular P.O. dose (mpk milligrams per kilogram) for the following Example compounds are provided.

Emax (sGC α1/β1 heterodimer) [%]	EC50 (sGC α1/β1 heterodimer) [nM]	Ki [1] [nM]	% Activation (sGC α1/β1 heterodimer; activity expressed as percentage of compound A (standard)) [%]	SMILES	Category: maximum peak decrease of systolic blood pressure (SBP) in SHR ([2]; Dose P.O. 3 mpk)	Category: maximum peak decrease of systolic blood pressure (SBP) in SHR ([2]; Dose P.O. 1 mpk)
65	1130	0.493	–	C[C@@]1(c2ccc(CCC(=O)O)cc2)C(=O)Nc2nc(-c3nn(CC4CCC(F)(F)CC4)c4cc(Cl)ccc34)nc(N)c21 [Example 58B, (S)-3-(4-[4-amino-2-{6-chloro-1-[(4,4-difluorocyclohexyl)methyl]-1H-indazol-3-yl}-5-methyl-6-oxo-6,7-dihydro-5H-pyrrolo[2,3-d]pyrimidin-5-yl]phenyl)propanoic acid]	A (decrease in SBP in SHRs 5-25 mmHg)	–
102	247	0.323	–	CCCCn1nc(-c2nc(N)c3c(n2)NC(=O)C3(C)c2nc(CC(C)(C)C(=O)O)cs2)c2cccnc21 (centres unmarked) [Example 86A, 3-{2-[4-amino-2-(1-butyl-1H-pyrazolo[3,4-b]pyridin-3-yl)-5-methyl-6-oxo-6,7-dihydro-5H-pyrrolo[2,3-d]pyrimidin-5-yl]-1,3-thiazol-4-yl}-2,2-dimethylpropanoic acid]	–	A (decrease in SBP in SHRs 5-25 mmHg)
120	331	0.221	–	CC(C)(Cc1cccc(C2(C)C(=O)Nc3nc(-c4nn(CCC(F)(F)C(F)(F)F)c5cc(Cl)ccc45)nc(N)c32)c1)C(=O)O (centres unmarked) [Example 27B, 3-(3-{4-amino-2-[6-chloro-1-(3,3,4,4,4-pentafluorobutyl)-1H-indazol-3-yl]-5-methyl-6-oxo-6,7-dihydro-5H-pyrrolo[2,3-d]pyrimidin-5-yl}phenyl)-2,2-dimethylpropanoic acid]	–	A (decrease in SBP in SHRs 5-25 mmHg)
100	804	0.594	–	CC(C)(Cc1ccc(C2(C)C(=O)Nc3nc(-c4nn(CCC(F)(F)C(F)(F)F)c5cc(Cl)ccc45)nc(N)c32)cc1)C(=O)O (centres unmarked) [Example 33B, 3-(4-{4-amino-2-[6-chloro-1-(3,3,4,4,4-pentafluorobutyl)-1H-indazol-3-yl]-5-methyl-6-oxo-6,7-dihydro-5H-pyrrolo[2,3-d]pyrimidin-5-yl}phenyl)-2,2-dimethylpropanoic acid]	B (decrease in SBP in SHRs 25-40 mmHg)	–
108	442	0.343	–	CC(C)(Cc1csc([C@]2(C)C(=O)Nc3nc(-c4nn(CCCC(F)(F)F)c5nc(Cl)ccc45)nc(N)c32)n1)C(=O)O [Example 89B, (S)-3-(2-{4-amino-2-[6-chloro-1-(4,4,4-trifluorobutyl)-1H-pyrazolo[3,4-b]pyridin-3-yl]-5-methyl-6-oxo-6,7-dihydro-5H-pyrrolo[2,3-d]pyrimidin-5-yl}-1,3-thiazol-4-yl)-2,2-dimethylpropanoic acid]	B (decrease in SBP in SHRs 25-40 mmHg)	–
91	423	0.078	–	CC1(c2cccc(CCC(=O)O)c2)C(=O)Nc2nc(-c3nn(Cc4ccccc4F)c4ncccc34)nc(N)c21 (centres unmarked) [Example 22A, 3-(3-{4-amino-2-[1-(2-fluorobenzyl)-1H-pyrazolo[3,4-b]pyridin-3-yl]-5-methyl-6-oxo-6,7-dihydro-5H-pyrrolo[2,3-d]pyrimidin-5-yl}phenyl)propanoic acid]	A (decrease in SBP in SHRs 5-25 mmHg)	–
118	238	0.234	–	Cc1cc(C2(C)C(=O)Nc3nc(-c4nn(CCC(F)(F)C(F)(F)F)c5cc(Cl)ccc45)nc(N)c32)ccc1CCC(=O)O (centres unmarked) [Example 121B, 3-(4-{4-Amino-2-[6-chloro-1-(3,3,4,4,4-pentafluorobutyl)-1H-indazol-3-yl]-5-methyl-6-oxo-6,7-dihydro-5H-pyrrolo[2,3-d]pyrimidin-5-yl}-2-methylphenyl)propanoic acid]	A (decrease in SBP in SHRs 5-25 mmHg)	–
118	1370	0.374	–	CC(C)(Cc1ccc(C2(C)C(=O)Nc3nc(-c4nn(CCC(F)(F)C(F)(F)F)c5ncccc45)nc(N)c32)cc1)C(=O)O (centres unmarked) [Example 9B]	A (decrease in SBP in SHRs 5-25 mmHg)	–
95	210	0.182	–	CCCCCCn1nc(-c2nc(N)c3c(n2)NC(=O)[C@@]3(C)c2ccc(CCC(=O)O)cc2)c2ccc(Cl)cc21 [Example 45B, (S)-3-{4-[4-amino-2-(6-chloro-1-hexyl-1H-indazol-3-yl)-5-methyl-6-oxo-6,7-dihydro-5H-pyrrolo[2,3-d]pyrimidin-5-yl]phenyl}propanoic acid]	B (decrease in SBP in SHRs 25-40 mmHg)	–
112	129	0.063	–	CC(C)(Cc1csc([C@]2(C)C(=O)Nc3nc(-c4nn(Cc5ccccc5F)c5ncccc45)nc(N)c32)n1)C(=O)O [Example 90B, (S)-3-(2-{4-amino-2-[1-(2-fluorobenzyl)-1H-pyrazolo[3,4-b]pyridin-3-yl]-5-methyl-6-oxo-6,7-dihydro-5H-pyrrolo[2,3-d]pyrimidin-5-yl}-1,3-thiazol-4-yl)-2,2-dimethylpropanoic acid]	–	B (decrease in SBP in SHRs 25-40 mmHg)
109	504	0.413	–	CC(C)(C)CCCn1nc(-c2nc(N)c3c(n2)NC(=O)[C@@]3(C)c2ccc(CCC(=O)O)cc2)c2ccc(Cl)cc21 [Example 52B, (S)-3-(4-{4-amino-2-[6-chloro-1-(4,4-dimethylpentyl)-1H-indazol-3-yl]-5-methyl-6-oxo-6,7-dihydro-5H-pyrrolo[2,3-d]pyrimidin-5-yl}phenyl)propanoic acid]	A (decrease in SBP in SHRs 5-25 mmHg)	–
107	1370	0.223	–	C[C@@]1(c2nc(CCC(=O)O)cs2)C(=O)Nc2nc(-c3nn(CCC(F)(F)C(F)(F)F)c4ncccc34)nc(N)c21 (single isomer, unassigned) [Example 82B]	A (decrease in SBP in SHRs 5-25 mmHg)	–
–	132	0.162	76	CC1CCC(Cn2nc(-c3nc(N)c4c(n3)NC(=O)[C@@]4(C)c3ccc(CCC(=O)O)cc3)c3ccc(Cl)cc32)CC1 (single isomer, unassigned) [Example 5BA]	B (decrease in SBP in SHRs 25-40 mmHg)	–
124	843	0.42	–	CC(C)(CC(=O)O)c1csc([C@]2(C)C(=O)Nc3nc(-c4nn(CCC(F)(F)C(F)(F)F)c5ncccc45)nc(N)c32)n1 [Example 79B, (S)-3-(2-{4-amino-5-methyl-6-oxo-2-[1-(3,3,4,4,4-pentafluorobutyl)-1H-pyrazolo[3,4-b]pyridin-3-yl]-6,7-dihydro-5H-pyrrolo[2,3-d]pyrimidin-5-yl}-1,3-thiazol-4-yl)-3-methylbutanoic acid]	A (decrease in SBP in SHRs 5-25 mmHg)	–
127	245	0.123	–	C[C@@]1(c2ccc(CCC(=O)O)cc2)C(=O)Nc2nc(-c3nn(CC4CCCCC4)c4cc(Cl)ccc34)nc(N)c21 [Example 44B, (S)-3-(4-{4-amino-2-[6-chloro-1-(cyclohexylmethyl)-1H-indazol-3-yl]-5-methyl-6-oxo-6,7-dihydro-5H-pyrrolo[2,3-d]pyrimidin-5-yl}phenyl)propanoic acid]	C (decrease in SBP in SHRs>40 mmHg)	–
86	152	0.112	–	CCCCn1nc(-c2nc(N)c3c(n2)NC(=O)[C@@]3(C)c2ccc(CCC(=O)O)cc2)c2ccc(Cl)nc21 [Example 13B, (S)-3-(4-{4-amino-2-(1-butyl-6-chloro-1H-pyrazolo[3,4-b]pyridin-3-yl)-5-methyl-6-oxo-6,7-dihydro-5H-pyrrolo[2,3-d]pyrimidin-5-yl}phenyl)propanoic acid]	A (decrease in SBP in SHRs 5-25 mmHg)	–
116	858	0.293	–	Cc1ccc2c(-c3nc(N)c4c(n3)NC(=O)[C@@]4(C)c3ccc(CCC(=O)O)cc3)nn(Cc3ccccc3F)c2c1 [Example 59B, (S)-3-(4-{4-amino-2-[1-(2-fluorobenzyl)-6-methyl-1H-indazol-3-yl]-5-methyl-6-oxo-6,7-dihydro-5H-pyrrolo[2,3-d]pyrimidin-5-yl}phenyl)propanoic acid]	A (decrease in SBP in SHRs 5-25 mmHg)	–
